Laboratory results as given in ChEMBL document CHEMBL1130531, “A new series of selective dopamine D4 ligands: 3-([4-arylpiperazin-1-yl]alkylamino)-2H-1,4-benzoxazines” (Bioorg Med Chem Lett, 1997).

What was measured:
Format in all cases: cell-based
[1] = biological target: T1, D(4) dopamine receptor (Homo sapiens, UniProt P21917); test: Binding affinity at cloned human D4 dopamine receptor in CHO cells using [3H]-YM 09151 as radioligand
T1 sequence (P21917 whole entry): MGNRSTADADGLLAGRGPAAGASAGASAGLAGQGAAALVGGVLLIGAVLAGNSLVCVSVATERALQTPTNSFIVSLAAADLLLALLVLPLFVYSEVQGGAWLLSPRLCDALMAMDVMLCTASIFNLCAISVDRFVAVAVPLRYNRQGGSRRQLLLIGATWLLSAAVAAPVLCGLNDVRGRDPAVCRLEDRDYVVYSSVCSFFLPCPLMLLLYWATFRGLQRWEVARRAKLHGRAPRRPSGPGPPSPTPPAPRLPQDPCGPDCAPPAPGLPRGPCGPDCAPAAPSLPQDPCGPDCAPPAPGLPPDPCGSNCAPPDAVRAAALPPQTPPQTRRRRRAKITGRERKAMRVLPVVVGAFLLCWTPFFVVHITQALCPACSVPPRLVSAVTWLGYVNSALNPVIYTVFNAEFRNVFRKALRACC

[2] = biological target: D(3) dopamine receptor (Homo sapiens, UniProt P35462); test: Binding affinity at cloned human D3 dopamine receptor in CHO cells using [3H]-YM 09151 as radioligand
Sequence of D(3) dopamine receptor (P35462 whole entry): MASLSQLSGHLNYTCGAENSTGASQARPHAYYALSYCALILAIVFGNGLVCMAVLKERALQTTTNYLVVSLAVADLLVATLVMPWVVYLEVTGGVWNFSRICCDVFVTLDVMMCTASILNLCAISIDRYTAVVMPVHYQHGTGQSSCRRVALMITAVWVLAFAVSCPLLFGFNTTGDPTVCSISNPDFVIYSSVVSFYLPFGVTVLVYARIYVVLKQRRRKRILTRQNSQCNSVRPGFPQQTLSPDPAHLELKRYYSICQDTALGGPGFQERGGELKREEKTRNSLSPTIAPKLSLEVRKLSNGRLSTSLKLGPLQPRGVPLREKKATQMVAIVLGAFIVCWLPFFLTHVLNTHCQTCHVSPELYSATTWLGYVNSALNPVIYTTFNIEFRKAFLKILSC

[3] = biological target: D(2) dopamine receptor (Homo sapiens, UniProt P14416); test: Binding affinity at cloned human D2 dopamine receptor in CHO cells using [3H]-YM 09151 as radioligand
Sequence of D(2) dopamine receptor (P14416 whole entry): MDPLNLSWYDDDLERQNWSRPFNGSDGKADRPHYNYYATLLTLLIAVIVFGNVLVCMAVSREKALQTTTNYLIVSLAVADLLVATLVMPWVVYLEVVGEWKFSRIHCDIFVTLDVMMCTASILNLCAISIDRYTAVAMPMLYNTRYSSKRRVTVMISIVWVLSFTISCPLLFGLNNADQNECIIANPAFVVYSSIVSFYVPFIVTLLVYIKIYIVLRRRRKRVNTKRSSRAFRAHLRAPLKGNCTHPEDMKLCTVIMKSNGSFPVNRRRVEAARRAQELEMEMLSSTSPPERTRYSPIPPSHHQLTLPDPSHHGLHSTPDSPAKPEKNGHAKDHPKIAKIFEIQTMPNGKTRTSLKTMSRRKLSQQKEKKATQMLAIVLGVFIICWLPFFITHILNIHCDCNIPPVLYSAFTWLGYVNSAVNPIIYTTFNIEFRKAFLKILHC

Row | SMILES | Ki [1] [µM] | Ki [2] [µM] | Ki [3] [µM]
1 | c1ccc2c(c1)N=C(NCCCCCN1CCN(c3ccc4ccccc4n3)CC1)CO2 | 0.125 |  | 
2 | COc1ccccc1N1CCN(CCCNC2=Nc3ccccc3OC2)CC1 | 0.003 | > 1 | 0.28
